The text below walks through data of publication PMC11889359, “Site-Specific Competitive Kinase Inhibitor Target Profiling Using Phosphonate Affinity Tags” (Molecular & Cellular Proteomics : MCP, 2025).

Like-named read-outs stand apart in the source and are kept apart here.

Assay [1] concerns the target T1, epithelial discoidin domain-containing receptor 1 (DDR1) (Homo sapiens, UniProt Q08345).
T1 construct: endogenous in cells; host or cells: cultured cells treated intact (A549 per the earlier reading)
The experiment in a line: Competitive site-specific PhosID-ABPP with XO44 in intact A549 cells. Format: binding. Particulars: apparent IC50, pepsin-based analysis, n = 3, read-out: IC50 DDR1;K655. On the procedure:
(§1) 1e^6 cells were plated in 15 cm plates (Greiner) 3 days before treatment and kept in a humidified atmosphere with 5% CO2 at 37 °C. The growth medium was replaced by 10 ml treatment [DMEM with 0.5% FBS and 100 units/ml PS supplemented with the corresponding concentration of NVP-BHG712 (Sigma-Aldrich) or DMSO] and incubated at 37 °C, 5% CO2 for 3 h. Then, 10 μl 25 mM XO44 (PF-6808472, Sigma-Aldrich) was added directly to the medium and swirled to enable dissolution. Subsequently, the cells were incubated at 37 °C, 5% CO2 for 4 h. The samples for Supplemental Fig. S1 were generated by directly incubating with 25 μM XO44-containing growth medium for 4 h.
(§2) After treatment, the cells were washed with ice-cold DPBS and harvested using a cell scraper in 1 ml ice-cold DPBS. Then, the cell suspension was spun down at 2000g for 1 min, and the supernatant was aspirated. The cell pellet was snap-frozen in liquid nitrogen and stored at −80 °C for later use.
(§3) Cell pellets were lysed in 500 μl lysis buffer per 15 cm plate of cells, consisting of 50 mM Hepes (Sigma-Aldrich, pH 7.5), 0.5% NP-40 (Applichem), 0.2% SDS (Gen-Apex), 2 mM MgCl2 (Sigma-Aldrich), 10 mM NaCl (Merck), 1× protease inhibitor cocktail (Roche), and 0.5 μl/ml Benzonase (Millipore). Cell lysates were incubated at room temperature for 15 min to allow DNA cleavage. Cell debris and DNA were spun down for 30 min at 20,567g at 16 °C. The supernatant was collected, and the protein concentration was determined by a bicinchoninic acid assay (Thermo Fisher Scientific).
(§4) The copper(I)-catalyzed azide-alkyne cycloaddition (CuAAC) was performed on cellular lysates in 2 M urea (Merck) in 1× 50 mM Hepes (pH 7.5). CuAAC components were added in the following order: 5 mM tris(3-hydroxypropyltriazolylmethyl)amine (Lumiprobe), 2.5 mM CuSO4 5·H2O (Sigma-Aldrich), 500 μM phosphonate-azide (prepared as described in van Bergen et al., 2023 ([28])), and 25 mM sodium ascorbate (Sigma-Aldrich). Samples were incubated for 2 h at room temperature while rotating. Methanol–chloroform precipitation was performed to remove the CuAAC components, and the air-dried pellets were resuspended in 8 M urea and sonicated in a bioruptor (Diagenode) with the high amplitude setting for 10 min with cycles of 30 s on and 30 s off.
(§5) Clicked and dissolved protein samples were diluted to 4M urea with 50 mM ammonium bicarbonate (pH 8, AmBic, Sigma-Aldrich). The proteins were reduced with 4 mM DTT (Sigma-Aldrich) for 60 minutes at room temperature and alkylated in the dark using 8 mM iodoacetamide (Sigma-Aldrich) for 30 min. Residual iodoacetamide was quenched by adding DTT to a final concentration of 4 mM.
(§6) Next, samples were diluted 2× with 50 mM AmBic and digested with LysC (1:75 enzyme to protein ratio, Wako) for 4 h at 37 °C. Finally, proteins were digested overnight using Trypsin (1:50, enzyme to protein ratio, Sigma-Aldrich) at 37 °C. Proteolysis with chymotrypsin was performed similarly to the trypsin digestion, only replacing both proteolytic enzymes with α-chymotrypsin (bovine, 1:75, enzyme to protein ratio, Sigma-Aldrich) overnight at 37 °C. Digested material was desalted using 3 cc C18 Seppak cartridges (Waters) and air dried using a vacuum centrifuge.
(§7) For the digestion with pepsin, protease incubation (Porcine, 1:50, enzyme to protein ratio, Sigma-Aldrich) was performed for 4 h at 37 °C in 40 mM HCl (pH 2). Digested material was directly desalted using 3 cc C18 Seppak cartridges and air dried using a vacuum centrifuge.
(§8) Samples were dephosphorylated prior to immobilized metal affinity chromatography (IMAC) enrichment. Desalted peptides were dissolved in 1× rCutSmart buffer (pH 8, New England BioLabs) and incubated with 50 units of alkaline phosphatase (calf intestinal, QuickCIP, New England BioLabs) overnight at 37 °C while shaking. After dephosphorylation, all peptides were again desalted using 3 cc C18 Seppak cartridges and air-dried using a vacuum centrifuge. […]

In assay [2] the target is T2, inosine-5′-monophosphate dehydrogenase 2 (IMPDH2) (Homo sapiens, UniProt P12268).
T2 construct: endogenous in cells; host or cells: cultured cells treated intact (A549 per the earlier reading)
Described as above. The note with it: apparent IC50, competition with XO44 on lysine 450, n = 3, read-out: IC50 IMPDH2;K450. It is filed as binding. The method, then:
as §1, §2, §3, §4, §5, §6, §7, §8

The target of assay [3] is T3, neurotrophic receptor tyrosine kinase 3 (NTRK3) (Homo sapiens, UniProt Q16288).
T3 construct: endogenous in cells; host or cells: cultured cells treated intact (A549 per the earlier reading)
The assay is described as above. It is filed as binding. The note with it: 0.1 nM to 25 µM inhibitor, pepsin. The method, then: as §1, §2, §3, §4, §5, §6, §7, §8

Assay [4] addresses T4, proto-oncogene tyrosine-protein kinase src (SRC) (Homo sapiens, UniProt P12931).
T4 construct: endogenous in cells; host or cells: cultured cells treated intact (A549 per the earlier reading)
The assay is described as above. It is filed as binding. Particulars: 0.1 nM to 25 µM inhibitor, trypsin and pepsin. On the procedure:
as §1, §2, §3, §4, §5, §6, §7, §8

Assay [5] deals with apoptosis signal-regulating kinases 1-3 (MAP3K5/6/15). The description is as above. Format: binding, human. Particulars: apparent IC50, nonunique peptide, n = 3, read-out: IC50 MAP3K5/6/15 (nonunique peptide: MAP3K5;K709, MAP3K6;K677, MAP3K15;K681). The method, then:
as §1, §2
Cell pellets were lysed in 500 μl lysis buffer per 15 cm plate of cells, consisting of 50 mM Hepes (Sigma-Aldrich, pH 7.5), 0.5% NP-40 (Applichem), 0.2% SDS (Gen-Apex), 2 mM MgCl2 (Sigma-Aldrich), 10 mM NaCl (Merck), 1× protease inhibitor cocktail (Roche), and 0.5 μl/ml Benzonase (Millipore). […] The supernatant was collected, and the protein concentration was determined by a bicinchoninic acid assay (Thermo Fisher Scientific). […]

Assay [6] addresses EphA2. More on the design: method as in PMID 29928781. Particulars: read-out: Literature value for EphA2, microscale thermo-phoresis; cited from earlier work.
In assay [7] the test system is EphA2. More on the design: method as in PMID 29928781. Particulars: read-out: Literature value for EphA2, NanoBRET assay; cited from earlier work. (BRET reads energy transfer from a luciferase to a nearby fluorophore.)
Assay [8] addresses EphA2. More on the design: method as in PMID 29928781. The note with it: read-out: Literature value for EphA2, kinobeads; cited from earlier work.
The subject of another assay is EphB4. Set-up: method as in PMID 20803239. Particulars: cellular autophosphorylation; cited from earlier work.
The subject of the next assay is DDR1. More on the design: method as in PMID 36799129. The note with it: cited from earlier work.

T2 sequence (P12268 2-514 limits assumed): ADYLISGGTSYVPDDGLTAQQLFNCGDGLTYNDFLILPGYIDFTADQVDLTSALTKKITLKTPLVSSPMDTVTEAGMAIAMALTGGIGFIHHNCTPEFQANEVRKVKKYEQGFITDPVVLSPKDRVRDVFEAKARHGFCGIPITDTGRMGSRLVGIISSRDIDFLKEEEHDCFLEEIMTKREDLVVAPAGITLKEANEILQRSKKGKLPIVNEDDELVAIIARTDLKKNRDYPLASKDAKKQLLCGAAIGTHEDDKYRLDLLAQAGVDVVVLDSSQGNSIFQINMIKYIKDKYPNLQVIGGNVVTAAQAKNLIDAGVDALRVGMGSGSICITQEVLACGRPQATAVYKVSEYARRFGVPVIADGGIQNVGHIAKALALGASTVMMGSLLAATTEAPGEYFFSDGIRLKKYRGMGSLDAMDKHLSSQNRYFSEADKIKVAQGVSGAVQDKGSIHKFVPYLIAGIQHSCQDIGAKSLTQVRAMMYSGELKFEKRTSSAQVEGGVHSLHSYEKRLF
T3 sequence (Q16288 32-839): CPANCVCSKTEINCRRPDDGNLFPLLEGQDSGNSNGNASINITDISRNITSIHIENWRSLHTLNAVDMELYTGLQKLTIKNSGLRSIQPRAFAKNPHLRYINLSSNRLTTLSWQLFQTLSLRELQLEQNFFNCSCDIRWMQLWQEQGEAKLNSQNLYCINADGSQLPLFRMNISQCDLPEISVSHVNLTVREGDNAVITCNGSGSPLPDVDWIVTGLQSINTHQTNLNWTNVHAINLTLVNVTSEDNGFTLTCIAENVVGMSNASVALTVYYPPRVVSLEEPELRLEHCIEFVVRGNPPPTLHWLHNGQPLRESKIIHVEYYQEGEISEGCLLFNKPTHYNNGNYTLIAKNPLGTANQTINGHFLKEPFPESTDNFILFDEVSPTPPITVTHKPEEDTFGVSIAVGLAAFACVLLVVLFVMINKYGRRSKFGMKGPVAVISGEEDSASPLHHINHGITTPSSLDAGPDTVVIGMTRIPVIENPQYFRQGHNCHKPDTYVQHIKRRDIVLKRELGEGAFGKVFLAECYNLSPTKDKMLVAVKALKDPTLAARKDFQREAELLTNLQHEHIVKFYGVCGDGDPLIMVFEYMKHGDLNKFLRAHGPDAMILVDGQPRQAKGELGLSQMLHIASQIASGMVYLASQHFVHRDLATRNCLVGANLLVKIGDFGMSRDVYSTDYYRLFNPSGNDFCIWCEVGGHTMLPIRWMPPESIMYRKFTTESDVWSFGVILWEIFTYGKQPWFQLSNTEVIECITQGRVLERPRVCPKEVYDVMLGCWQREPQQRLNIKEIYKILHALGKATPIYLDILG
T1 sequence (Q08345 19-913): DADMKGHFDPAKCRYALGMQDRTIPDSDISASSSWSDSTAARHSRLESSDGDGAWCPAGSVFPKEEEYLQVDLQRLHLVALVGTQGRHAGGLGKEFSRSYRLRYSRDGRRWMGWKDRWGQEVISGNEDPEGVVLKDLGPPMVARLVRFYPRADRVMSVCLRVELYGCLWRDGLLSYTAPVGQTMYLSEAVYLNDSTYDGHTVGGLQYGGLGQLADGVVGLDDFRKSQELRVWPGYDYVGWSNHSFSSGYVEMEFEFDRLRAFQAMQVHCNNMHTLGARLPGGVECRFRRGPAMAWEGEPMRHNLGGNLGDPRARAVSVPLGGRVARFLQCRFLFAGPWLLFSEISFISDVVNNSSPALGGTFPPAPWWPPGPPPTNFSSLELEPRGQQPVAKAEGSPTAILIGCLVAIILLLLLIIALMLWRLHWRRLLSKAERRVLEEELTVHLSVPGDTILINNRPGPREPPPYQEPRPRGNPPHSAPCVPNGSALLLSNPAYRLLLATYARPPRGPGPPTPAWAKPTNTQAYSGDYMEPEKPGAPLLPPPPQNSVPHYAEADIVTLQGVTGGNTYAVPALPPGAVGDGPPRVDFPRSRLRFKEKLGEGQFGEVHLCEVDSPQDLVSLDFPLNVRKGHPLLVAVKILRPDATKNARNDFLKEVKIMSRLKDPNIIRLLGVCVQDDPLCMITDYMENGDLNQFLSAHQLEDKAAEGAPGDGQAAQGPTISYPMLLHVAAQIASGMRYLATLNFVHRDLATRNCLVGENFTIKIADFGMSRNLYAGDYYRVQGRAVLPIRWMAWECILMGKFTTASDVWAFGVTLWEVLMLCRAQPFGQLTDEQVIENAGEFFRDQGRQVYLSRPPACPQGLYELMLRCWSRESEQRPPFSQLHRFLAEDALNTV

For the substance NVP-BHG712, the IC50 is 2.1 nM in [1]; 9600 nM in [2]; 9700 nM in [5]; 3 nM with EphA2 [7]; 25 nM in the assay on EphB4. In [3], the “MaxLFQ signal of XO44-bound NTRK3;K572 over the concentration range” value is listed as “stable MaxLFQ signal over the full concentration range”. For the same substance, the “Interaction with ATP-binding pocket, SRC;K298 signal across the concentration range” value in assay [4] is reported as “do not interact”. The figures for the Kd on EphA2 [6] and on EphA2 [8] were 13 nM and 240 nM, respectively. Besides, the “Binding to DDR1 in kinobeads profiling” value with DDR1 is “does not bind”.
